ChEMBL document CHEMBL1156740, “A bivalent ligand (KMN-21) antagonist for mu/kappa heterodimeric opioid receptors” (Bioorg Med Chem Lett, 2009)
The source made the active and inactive calls.

What was measured:
Assay type in all cases: functional, cell-based
[1] = molecular target: Kappa-type opioid receptor (Homo sapiens) (UniProt P41145); assay: Antagonistic activity at kappa opioid receptor expressed in HEK293 cells co-transfected with chimeric G-protein delta 6-Gqi4-myr assessed as inhibition of U69593-induced calcium release at 1 uM
Kappa-type opioid receptor (Homo sapiens), sequence (P41145 whole entry): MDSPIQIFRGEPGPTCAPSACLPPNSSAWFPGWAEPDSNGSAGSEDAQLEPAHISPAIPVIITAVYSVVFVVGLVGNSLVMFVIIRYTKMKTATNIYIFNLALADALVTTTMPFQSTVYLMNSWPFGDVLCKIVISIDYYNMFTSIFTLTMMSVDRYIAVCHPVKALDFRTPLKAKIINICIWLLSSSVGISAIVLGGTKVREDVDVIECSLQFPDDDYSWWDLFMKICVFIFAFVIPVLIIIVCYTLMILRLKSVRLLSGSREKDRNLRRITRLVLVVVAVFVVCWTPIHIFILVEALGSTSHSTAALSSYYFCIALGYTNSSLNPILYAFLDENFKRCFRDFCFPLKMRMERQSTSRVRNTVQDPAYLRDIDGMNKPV

[2] = molecular target: T1, Opioid receptors; mu & kappa (Homo sapiens) (UniProt P41145+P35372); assay: Antagonistic activity at mu/kappa opioid receptor expressed in HEK293 cells co-transfected with chimeric G-protein delta 6-Gqi4-myr assessed as inhibition of DAMGO-induced calcium release at 1 uM
T1 sequence (P35372 whole entry, looked up): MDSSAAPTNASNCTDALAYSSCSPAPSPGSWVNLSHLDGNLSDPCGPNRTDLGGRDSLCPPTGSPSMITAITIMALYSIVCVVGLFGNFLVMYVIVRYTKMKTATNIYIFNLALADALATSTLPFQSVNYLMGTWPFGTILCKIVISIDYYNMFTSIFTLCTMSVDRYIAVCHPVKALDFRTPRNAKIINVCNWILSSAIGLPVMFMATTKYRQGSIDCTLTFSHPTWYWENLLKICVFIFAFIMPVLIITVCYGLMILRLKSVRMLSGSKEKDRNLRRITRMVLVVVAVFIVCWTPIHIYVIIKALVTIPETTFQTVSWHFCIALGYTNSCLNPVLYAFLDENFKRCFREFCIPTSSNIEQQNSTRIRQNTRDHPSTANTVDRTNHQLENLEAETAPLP
T1 sequence (P41145 whole entry, looked up): as the sequence (P41145 whole entry) above

[3] = molecular target: T1, Opioid receptors; mu & kappa (Homo sapiens); assay: Antagonistic activity at mu/kappa opioid receptor expressed in HEK293 cells co-transfected with chimeric G-protein delta 6-Gqi4-myr assessed as inhibition of U69593-induced calcium release at 1 uM
[4] = molecular target: Mu-type opioid receptor (Homo sapiens) (UniProt P35372); assay: Antagonistic activity at mu opioid receptor expressed in HEK293 cells co-transfected with chimeric G-protein delta 6-Gqi4-myr assessed as inhibition of DAMGO-induced calcium release at 1 uM
Mu-type opioid receptor (Homo sapiens), sequence (P35372 whole entry): as the sequence (P35372 whole entry, looked up) above

Measured: Activity

N=C(NCCCCCNC(=O)CNC(=O)CNC(=O)CCC(=O)NCC(=O)NCC(=O)N[C@H]1C[C@@H]2Oc3c(O)ccc4c3[C@@]23CCN(CC2CC2)[C@H](C4)[C@]3(O)C1)Nc1ccc2[nH]c3c(c2c1)C[C@@]1(O)[C@H]2Cc4ccc(O)c5c4[C@@]1(CCN2CC1CC1)[C@H]3O5
active: all assays above

N=C(NCCNC(=O)CNC(=O)CNC(=O)CCC(=O)NCC(=O)NCC(=O)N[C@H]1C[C@@H]2Oc3c(O)ccc4c3[C@@]23CCN(CC2CC2)[C@H](C4)[C@]3(O)C1)Nc1ccc2[nH]c3c(c2c1)C[C@@]1(O)[C@H]2Cc4ccc(O)c5c4[C@@]1(CCN2CC1CC1)[C@H]3O5
active: all assays above

N=C(NCCCCNC(=O)CNC(=O)CNC(=O)CCC(=O)NCC(=O)NCC(=O)N[C@H]1C[C@@H]2Oc3c(O)ccc4c3[C@@]23CCN(CC2CC2)[C@H](C4)[C@]3(O)C1)Nc1ccc2[nH]c3c(c2c1)C[C@@]1(O)[C@H]2Cc4ccc(O)c5c4[C@@]1(CCN2CC1CC1)[C@H]3O5
active: all assays above

N=C(NCCCNC(=O)CNC(=O)CNC(=O)CCC(=O)NCC(=O)NCC(=O)N[C@H]1C[C@@H]2Oc3c(O)ccc4c3[C@@]23CCN(CC2CC2)[C@H](C4)[C@]3(O)C1)Nc1ccc2[nH]c3c(c2c1)C[C@@]1(O)[C@H]2Cc4ccc(O)c5c4[C@@]1(CCN2CC1CC1)[C@H]3O5
active: all assays above
